Data from ChEMBL document CHEMBL3621083, “Dehydroabietylamine derivatives as multifunctional agents for the treatment of Alzheimer's disease” (Medchemcomm, 2014).
Activity calls are given as the source filed them. The calls are words filed in the database; no cut-off is given here.

What was measured:
[1] = biological target: T1, Amyloid-beta precursor protein (Homo sapiens, UniProt P05067); experiment: Inhibition of amyloid beta-42 (unknown origin) self-mediated aggregation at 50 uM by thioflavin-T fluorescence assay
T1 sequence (P05067 whole entry): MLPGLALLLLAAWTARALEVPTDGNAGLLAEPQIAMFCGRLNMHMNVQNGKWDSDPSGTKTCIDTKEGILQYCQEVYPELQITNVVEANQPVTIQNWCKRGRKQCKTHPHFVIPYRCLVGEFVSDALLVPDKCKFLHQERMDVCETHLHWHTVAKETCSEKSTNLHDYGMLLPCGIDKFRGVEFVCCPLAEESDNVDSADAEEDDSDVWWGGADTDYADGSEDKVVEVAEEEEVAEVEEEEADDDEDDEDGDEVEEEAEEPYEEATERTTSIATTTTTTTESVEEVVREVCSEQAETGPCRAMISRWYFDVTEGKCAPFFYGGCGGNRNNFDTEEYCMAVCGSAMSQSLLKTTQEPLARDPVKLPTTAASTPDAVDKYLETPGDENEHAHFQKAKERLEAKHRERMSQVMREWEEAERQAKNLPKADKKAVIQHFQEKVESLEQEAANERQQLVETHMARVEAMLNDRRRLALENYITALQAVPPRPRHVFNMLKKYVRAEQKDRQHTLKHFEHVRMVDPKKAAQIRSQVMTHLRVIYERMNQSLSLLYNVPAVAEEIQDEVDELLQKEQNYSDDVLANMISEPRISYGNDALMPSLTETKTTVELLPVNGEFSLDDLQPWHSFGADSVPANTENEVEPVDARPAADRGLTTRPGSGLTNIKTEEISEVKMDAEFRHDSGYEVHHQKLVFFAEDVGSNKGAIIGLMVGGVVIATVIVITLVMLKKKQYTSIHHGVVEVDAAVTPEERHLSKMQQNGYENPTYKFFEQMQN

[2] = biological target: T1, Amyloid-beta precursor protein; experiment: Inhibition of amyloid beta-42 (unknown origin) aging fibrils disaggregation at 50 uM by thioflavin-T fluorescence assay
SH-SY5Y [3] = experiment: Anti-oxidative activity in human SH-SY5Y cells assessed as reduction of ROS generation at 10 uM using DCFH-DA; format: functional
SH-SY5Y [4] = experiment: Cytotoxicity against human SH-SY5Y cells assessed as cell viability at 10 uM after 48 hrs by MTT assay; format: cell-based
Caenorhabditis elegans [5] = experiment: Anti-Alzheimer's activity in Caenorhabditis elegans CL4176 assessed as delay in amyloid beta-induced paralysis at 500 uM after 36 hrs of amyloid beta expression; format: functional, organism-based
Caenorhabditis elegans [6] = experiment: Anti-Alzheimer's activity in Caenorhabditis elegans CL4176 expressing amyloid beta assessed as increase of average time of life expectancy at 500 uM (reference value: 46.9 +/- 0.54 hrs); format: functional
[7] = Cytotoxicity against human HEK293 cells expressing swAPP assessed as cell viability at 25 uM after 48 hrs by MTT assay; format: cell-based; conditions: read-out: Activity
Caenorhabditis elegans [8] = experiment: Anti-Alzheimer's activity in Caenorhabditis elegans CL4176 expressing amyloid beta assessed as increase of average time of life expectancy at 50 uM (reference value: 46.9 +/- 0.54 hrs); format: functional
Caenorhabditis elegans [9] = experiment: Anti-Alzheimer's activity in Caenorhabditis elegans CL4176 expressing amyloid beta assessed as increase of average time of life expectancy at 200 uM (reference value: 46.9 +/- 0.54 hrs); format: functional
Caenorhabditis elegans [10] = experiment: Anti-Alzheimer's activity in Caenorhabditis elegans CL4176 assessed as delay in amyloid beta-induced paralysis at 10 to 50 uM after 36 hrs of amyloid beta expression; format: functional, organism-based
[11] = biological target: T1, Amyloid-beta precursor protein; experiment: Inhibition of amyloid beta-42 (unknown origin) self-mediated aggregation by thioflavin-T fluorescence assay
[12] = biological target: T1, Amyloid-beta precursor protein; experiment: Inhibition of swAPP-mediated amyloid beta-42 production in human HEK293 cells at 10 uM after 48 hrs by ELISA (reference value: 100 +/-3.45%); format: cell-based; design: scale not given: the % may be the effect or the level left
SH-SY5Y [13] = experiment: Neuroprotective activity in human SH-SY5Y cells assessed as protection against amyloid beta-42-induced cell death at 5 to 50 uM after 48 hrs by MTT assay (reference value: 50.02 +/- 4.98%); format: functional
[14] = biological target: T1, Amyloid-beta precursor protein; experiment: Inhibition of amyloid beta-42 (unknown origin) aging fibrils disaggregation by thioflavin-T fluorescence assay
[15] = biological target: T1, Amyloid-beta precursor protein; experiment: Inhibition of fibrils formation in aggregated amyloid beta-42 (unknown origin) assessed as short fibril formation at 50 uM after 48 hrs by transmission electron microscopy analysis
[16] = biological target: T1, Amyloid-beta precursor protein; experiment: Increase of alpha-helics formation in amyloid beta-42 (unknown origin) at 40 uM after 48 hrs by circular dichroism spectra analysis
Caenorhabditis elegans [17] = experiment: Reduction of amyloid beta expression in Caenorhabditis elegans CL4176 at 10 to 50 uM by Western blot analysis; format: functional, organism-based
SH-SY5Y [18] = experiment: Cytotoxicity against human SH-SY5Y cells assessed as cell viability at 1 to 50 uM after 48 hrs by MTT assay; format: cell-based
[19] = biological target: T1, Amyloid-beta precursor protein; experiment: Inhibition of amyloid beta-42 (unknown origin) beta sheets structure formation at 40 uM after 48 hrs by circular dichroism spectra analysis
[20] = biological target: T1, Amyloid-beta precursor protein; experiment: Inhibition of amyloid beta-42 (unknown origin) fibrils formation at 50 uM after 48 hrs by transmission electron microscopy analysis
[21] = biological target: T1, Amyloid-beta precursor protein; experiment: Inhibition of swAPP-mediated amyloid beta-42 production in human HEK293 cells at 25 uM after 48 hrs by ELISA (reference value: 100 +/-3.45%); format: cell-based; design: scale not given: the % may be the effect or the level left
Caenorhabditis elegans [22] = experiment: Anti-Alzheimer's activity in Caenorhabditis elegans CL4176 expressing amyloid beta assessed as increase of average time of life expectancy at 10 uM (reference value: 46.9 +/- 0.54 hrs); format: functional

SMILES	inhibition [1]	inhibition [2]	inhibition at 10 µM (SH-SY5Y [3])	inhibition (SH-SY5Y [3])	also measured
CC(=O)NC[C@]1(C)CCC[C@]2(C)c3ccc(C(C)C)cc3/C(=N\NC(N)=O)C[C@@H]12	inactive	inactive	13.3%		
CC(C)c1ccc2c(c1)/C(=N/NC(=O)c1ccncc1)C[C@H]1[C@](C)(CNC(=O)C(F)(F)F)CCC[C@]21C	inactive	inactive		inactive	
CC(C)c1ccc2c(c1)C(=O)C[C@H]1[C@](C)(CNC(=O)C(F)(F)F)CCC[C@]21C	inactive	inactive	19.8%		
CC(=O)Oc1cc(/C=N\C[C@]2(C)CCC[C@]3(C)c4ccc(C(C)C)cc4CC[C@@H]23)cc(OC(C)=O)c1OC(C)=O	20.6%	8.93%	48.2%		
CC(C)c1ccc2c(c1)/C(=N/O)C[C@H]1[C@](C)(CNC(=O)C(F)(F)F)CCC[C@]21C	inactive	inactive	34.1%		
CC(=O)Oc1cc(C(=O)NC[C@]2(C)CCC[C@]3(C)c4ccc(C(C)C)cc4CC[C@@H]23)cc(OC(C)=O)c1OC(C)=O	55.3%	37.6%	41.8%		Activity (SH-SY5Y [4]): Non-toxic
CC(C)c1ccc2c(c1)C(=O)C[C@H]1[C@](C)(CN)CCC[C@]21C	inactive	inactive		inactive	
CC(=O)NC[C@]1(C)CCC[C@]2(C)c3ccc(C(C)C)cc3/C(=N/NC(C)=O)C[C@@H]12	inactive	inactive		inactive	
CC(=O)NC[C@]1(C)CCC[C@]2(C)c3ccc(C(C)C)cc3/C(=N/NC(=O)c3ccncc3)C[C@@H]12	inactive	inactive		inactive	
C/C=C1\[C@H]2C=C(C)C[C@]1(N)c1ccc(=O)[nH]c1C2 [HUPERZINE A]					Activity (Caenorhabditis elegans [5]): Active; Time (Caenorhabditis elegans [6]): 48.3 h
CC(C)c1c(NC(=O)/C=C/c2ccc(O)c(O)c2)cc2c(c1NC(=O)/C=C/c1ccc(O)c(O)c1)CC[C@H]1[C@](C)(CNC(=O)/C=C/c3ccc(O)c(O)c3)CCC[C@]21C	93.3%	82.5%	53.9%		Activity (SH-SY5Y [4]): Non-toxic
CC(C)c1c(NC(=O)/C=C/c2ccc(O)c(O)c2)cc2c(c1[N+](=O)[O-])CC[C@H]1[C@](C)(CNC(=O)/C=C/c3ccc(O)c(O)c3)CCC[C@]21C	92%	82.8%	62.4%		viability at 48 h, 25 µM [7]: > 90%; Time (Caenorhabditis elegans [8]): 50.5 h; Time (Caenorhabditis elegans [9]): 48.8 h; Activity (Caenorhabditis elegans [10]): Active; IC50 [11]: 3.96 µM; Activity [12]: 45.6%; Activity (SH-SY5Y [13]): 53.5%; inhibition [14]: Dose-dependent effect; Time (Caenorhabditis elegans [6]): 44.7 h; inhibition [15]: Active; Activity [16]: Active; Activity (Caenorhabditis elegans [17]): Active; Activity (SH-SY5Y [18]): Non-toxic; inhibition [19]: Active; inhibition [20]: Active; Activity [21]: 10.4%; Activity (SH-SY5Y [4]): Non-toxic; Time (Caenorhabditis elegans [22]): 48.2 h
CC(=O)NC[C@]1(C)CCC[C@]2(C)c3ccc(C(C)C)cc3/C(=N/O)C[C@@H]12	inactive	inactive	41.2%		
CC(C)c1ccc2c(c1)CC[C@H]1[C@](C)(C/N=C\c3ccc(O)cc3O)CCC[C@]21C	24.5%	10.7%	26.1%		Activity (SH-SY5Y [4]): Non-toxic
CC(C)c1ccc2c(c1)CC[C@H]1[C@](C)(CN)CCC[C@]21C	inactive	inactive		inactive	
COc1cc(/C=C/C(=O)CC(=O)/C=C/c2ccc(O)c(OC)c2)ccc1O [CURCUMIN]			37.9%		Activity (SH-SY5Y [4]): Non-toxic
CC(=O)NC[C@]1(C)CCC[C@]2(C)c3ccc(C(C)C)cc3/C(=N\NC(N)=S)C[C@@H]12	inactive	inactive		inactive	
CC(=O)NC[C@]1(C)CCC[C@]2(C)c3ccc(C(C)C)cc3/C(=N/OC(=O)c3ccc(Cl)cc3)C[C@@H]12	inactive	inactive	10.4%		
CC(C)c1c(N)cc2c(c1[N+](=O)[O-])CC[C@H]1[C@](C)(CN)CCC[C@]21C	inactive	inactive		inactive	
CC(C)c1c(N)cc2c(c1[N+](=O)[O-])CC[C@H]1[C@](C)(CNC(=O)c3ccc(O)c(O)c3)CCC[C@]21C	26.1%	14.2%	31.2%		
CC(C)c1ccc2c(c1)CC[C@H]1[C@](C)(CNC(=O)c3cc(O)c(O)c(O)c3)CCC[C@]21C	74.6%	49%	50.8%		Activity (SH-SY5Y [4]): Non-toxic
